The record followed here is patent US4010193A, “Basic ester” (Chinoin Gyogyszer-es Vegyeszeti Termekek Gyara RT, priority 1972, dated 1977).

Data set [1] relates to dogs. Nature of the data set: ECG (EKG) disturbances in dogs. Format: in vivo. The note with it: dose which exhibits a coronary dilatory effect.
Another data set has as its system rats. Nature of the data set: Acute toxicity on rats. The format is in vivo. The note with it: own investigations. As for the experimental part: (§1) Acute toxicity is measured on rats weighing 150-200 g. The test-compound is injected into the tail wein, within a period of not more, than 5 seconds in a volume of 0.2 ml/100 g. The LD50 -value and the confidentiality limits thereof are evaluated on the basis of the number of animals died within 24 hours. See (J. Pharmacol. Exper. Ther. 96, 89 (1948))

Data set [2] has as its system isolated ischiadicus nerves. Kind of data set: Local anaesthetic effect on isolated ischiadicus nerves of frogs. The note with it: for ED50 (dose reducing by 50% the amplitude of the action-potential): isolated ischiadicus nerves of frogs. As for the experimental part:
4. Local anaesthetical effect The local anaesthetic effect being characteristic of the majority of antiarrhythmical agents is tested on isolated ischiadicus nerves of frogs. The dose reducing by 50% the amplitude of the action-potential induced by stimulation of the nerves is considered as the rate (ED50) of the local anaesthetic effect.

Data set [3] deals with dogs. Nature of the data set: Toxicity on dogs (own investigations). The format is in vivo.
The test system of another data set is isolated right atrium. Kind of data set: Effect on spontaneous frequency of isolated right atria of rabbits. As for the experimental part:
(§2) 3. effect on the electro-physiological characteristics of isolated right and left atria of rabbits
(§3) Rabbits are killed by blows on the napeon; the isolated right atrium which is surviving in a Locke-solution having a temperature of 32° C the spontane frequency and on the isolated left atrium the electric threshold, the velocity of stimulus-transmission and the maximal driving frequency is determined. (Detailed description of the test: see L. Szekeres and Gy. Papp: "Experimental cardiac arrhythmias and antiarrhythmic drugs." Publishing House of the Hungarian Academy of Sciences, Budapest, 1971). Upon the effect of the rising concentrations of the various test compounds, the increase of the electric threshold indicates the reduction of myocardial stimulability and the decrease of the maximal driving frequency indicates the prolongation of the refractory period.

A further data set concerns right ventriculum. Kind of data set: Ventricular antifibrillatory effect on cats (ventricular fibrillation threshold). The format is in vivo. How it is done: (§4) On dogs anaesthetized with Nembutal (25 mg/kg) (iv.) disturbance of the cardiac rhythm was produced by the slow intravenous infusion of 40 - 80 μg/kg of strophantine, the latter amount depending on the sensibility of the animals. After the appearance of cumulated ventricular extrasystolae the test-compounds are intravenously injected in increasing doses and the arrhythmia antagonizing effect is regarded as positive, if the rhythm disturbance reappears after the cessation of the drug effect. Atrial and ventricular antifibrillatory effect on cats
(§5) In cats anaesthetized with an urethane mixture (60/300 mg/kg i.p.) the right atrium and the right ventriculum is irritated through a dipolar silver electrode with 20 Hz rectangular electric stimuli of […]. The threshold intensity (i.e. fibrillation threshold value) just eliciting the fibrillation of the ventriculum is determined. The capacity of the compounds to elevate the fibrillation threshold when administered intravenously is tested. (British J. Pharmacol. 17, 167, 1961).

The subject of another data set is isolated left atrium. Kind of data set: Effect on electro-physiological characteristics of isolated left atria of rabbits (electric threshold, velocity of stimulus-transmission, maximal driving frequency). How it is done:
as §2, §3

A further data set deals with right atrium. Kind of data set: Atrial antifibrillatory effect on cats (atrial fibrillation threshold). The format is in vivo. As for the experimental part: as §4, §5
The nature of a further data set: Acute toxicity on rats. Format: in vivo. As to conditions: rat, in vivo, iv, tail vein injection, deaths within 24 hours, confidence 95 %. How it is done:
as §1

The test system of the next data set is strophantine arrhythmia. Nature of the data set: Antagonism of strophantine arrhythmia on dogs. Format: in vivo. As for the experimental part:
1. Antagonism of strophantine arrhythmia on dogs
as §4

SMILES strings stand for the structures. Structures can show the parent of a compound that is named as a salt.

In general, LD50 refers to the dose at which mortality reaches 50%. Low values mean greater toxicity, high ones lower toxicity.

In the case of `COc1cc(C(=O)OCCCNCCC(c2ccccc2)c2ccccc2)cc(OC)c1OC.Cl` [3-(3,3-diphenyl-propylamino)-propyl-3,4,5-trimethoxy-benzoate-hydrochloride, reference compound], the “ECG (EKG) disturbances” value in the data set on dogs [1] is on record as “often caused ECG (EKG) disturbances”. In the data set on rats, the “toxicity relative to the compounds of the Formula I, rats” value is recorded as “significantly more toxic than the compounds of the Formula I”. For the same compound, the “wash-out from isolated frog nerve” value in data set [2] (isolated frog nerve) is reported as “cound not be washed out from isolated frog nerve”. Moreover, in the data set on dogs [3], the “toxicity relative to the compounds of the Formula I, dogs” value is given as “significantly more toxic than the compounds of the Formula I”.
As to `COc1cc(C(=O)OCCNC(C)c2ccccc2)cc(OC)c1OC` (centres unmarked) [Compound 1, N-2-ethyl-1-phenyl-ethylamino-3,4,5,-trimethoxy-benzoate-hydrochloride], the “Spontaneous frequency/min., changed value” was determined as 121 min⁻¹ with isolated right atrium (5 mg/l.) and 115 min⁻¹ in the data set with isolated right atrium (10 mg/l.). In addition, the “Ventricular fibrillation threshold, changed value” in the data set with right ventriculum (2 mg/kg iv.) was 0.97 mA. The figures for the “Maximal driving frequency/min, changed value” with isolated left atrium (5 mg./l.) and in the data set with isolated left atrium (10 mg./l.) were 267 min⁻¹ and 280 min⁻¹, respectively. Moreover, the “Velocity of stimulus-transmission, changed value” (shortened to “Velocity … changed value”) in the data set on isolated left atrium (5 mg./l.) was found to be 0.34 m/sec; in the data set with isolated left atrium (10 mg./l.) it was 0.43 m/sec. Moreover, the “Velocity of stimulus-transmission, deviation from basic value” (from here on “Velocity … deviation from basic value”) is listed as -15% in the data set on isolated left atrium (5 mg./l.) and -17% in the data set with isolated left atrium (10 mg./l.). Besides, the “Electric stimulus threshold, changed value” worked out at 0.32 mA in the data set with isolated left atrium (5 mg/l.) and 0.21 mA in the data set on isolated left atrium (10 mg/l.). Also, in the data set with right atrium (2 mg/kg iv.), the “Atrial fibrillation threshold, changed value” worked out at 1.02 mA. The compound further gave an LD50 at 24 h in the data set “Acute toxicity on rats” of 28 mg/kg. Further, in data set [2], the “ED50 (dose reducing by 50% the amplitude of the action-potential)” value worked out at 710 µg/mL. In addition, the “Period of antagonising strophantine arrhythmia” value came to 213 s with strophantine arrhythmia (dose 2 mg/kg. i.v.) and 260 s with strophantine arrhythmia (dose 4 mg/kg. i.v.).
Regarding `COc1cc(C(=O)OCCNC(C)C)cc(OC)c1OC` [Compound 2], the “Spontaneous frequency/min., changed value” in the data set on isolated right atrium (5 mg/l.) stood at 134 min⁻¹; in the data set with isolated right atrium (10 mg/l.) it was 120 min⁻¹. The “Ventricular fibrillation threshold, changed value” was found to be 0.82 mA with right ventriculum (2 mg/kg iv.), 0.99 mA with right ventriculum (4 mg/kg iv.) and 1.46 mA in the data set with right ventriculum (6 mg/kg iv.). The “Maximal driving frequency/min, changed value” with isolated left atrium (5 mg./l.) worked out at 334 min⁻¹; in the data set with isolated left atrium (10 mg./l.), 251 min⁻¹. Besides, the “Velocity … changed value” in the data set on isolated left atrium (5 mg./l.) and in the data set on isolated left atrium (10 mg./l.) was 0.32 m/sec each time. Also, the entries for the “Velocity … deviation from basic value” in the data set on isolated left atrium (5 mg./l.) and in the data set on isolated left atrium (10 mg./l.) were -18% and -27%, respectively. Moreover, the figures for the “Electric stimulus threshold, changed value” in the data set with isolated left atrium (5 mg/l.) and with isolated left atrium (10 mg/l.) were 0.39 mA and 0.62 mA, respectively. Further, the “Atrial fibrillation threshold, changed value” with right atrium (2 mg/kg iv.) stood at 0.66 mA; in the data set on right atrium (4 mg/kg iv.), 0.90 mA; in the data set on right atrium (6 mg/kg iv.), 0.89 mA. For the same compound, the LD50 at 24 h in “Acute toxicity on rats” came to 57 mg/kg. Also, the “ED50 (dose reducing by 50% the amplitude of the action-potential)” value in data set [2] came to 570 µg/mL. For the same compound, the “Period of antagonising strophantine arrhythmia” value was determined as 145 s with strophantine arrhythmia (dose 0,5 mg/kg. i.v.), 228 s in the data set on strophantine arrhythmia (dose 1 mg/kg. i.v.) and 287 s in the data set on strophantine arrhythmia (dose 2 mg/kg. i.v.).
As for `COc1cc(C(=O)OCCNC2CCCCC2)cc(OC)c1OC` [Compound 3, N-2-ethyl-cyclohexylamino-3,4,5-trimethoxy-benzoate-hydrochloride], the “Spontaneous frequency/min., changed value” stood at 116 min⁻¹ with isolated right atrium (1 mg/l.), 136 min⁻¹ with isolated right atrium (5 mg/l.) and 120 min⁻¹ in the data set with isolated right atrium (10 mg/l.). The entries for the “Ventricular fibrillation threshold, changed value” in the data set with right ventriculum (2 mg/kg iv.), with right ventriculum (4 mg/kg iv.) and in the data set on right ventriculum (6 mg/kg iv.) were 1.02 mA, 1.19 mA and 1.68 mA, respectively. Also, in the data set with right ventriculum (6 mg/kg iv.), the “Ventricular fibrillation threshold, deviation from basic value” was “+121%”. The “Maximal driving frequency/min, changed value” in the data set on isolated left atrium (1 mg./l.) worked out at 352 min⁻¹; in the data set with isolated left atrium (5 mg./l.), 264 min⁻¹; in the data set on isolated left atrium (10 mg./l.), 226 min⁻¹. Also, the “Velocity … changed value” in the data set with isolated left atrium (1 mg./l.) amounted to 0.49 m/sec; in the data set with isolated left atrium (5 mg./l.), 0.34 m/sec; in the data set with isolated left atrium (10 mg./l.), 0.20 m/sec. Further, the “Electric stimulus threshold, changed value” amounted to 0.26 mA in the data set with isolated left atrium (1 mg/l.), 0.31 mA in the data set on isolated left atrium (5 mg/l.) and 1.71 mA in the data set with isolated left atrium (10 mg/l.). In addition, the “Velocity … deviation from basic value” in the data set with isolated left atrium (5 mg./l.) was -40%; in the data set with isolated left atrium (10 mg./l.), -54%. The “Electric stimulus threshold, deviation from basic value” with isolated left atrium (10 mg/l., in %) was “+217 /3/”. The “Atrial fibrillation threshold, changed value” with right atrium (2 mg/kg iv.) was 0.95 mA; in the data set with right atrium (4 mg/kg iv.), 1.02 mA; with right atrium (6 mg/kg iv.), 1.18 mA. The LD50 at 24 h in the data set “Acute toxicity on rats” was found to be 29 mg/kg. For the same compound, the “ED50 (dose reducing by 50% the amplitude of the action-potential)” value in data set [2] is 450 µg/mL.
